Experimental data taken from ChEMBL document CHEMBL1148828, “Deoxycholic acid-derived tetraoxane antimalarials and antiproliferatives(1)” (J Med Chem, 2007).
pIC50: −log10 of the molar value.

Tests used:
[1] = system: Plasmodium falciparum; assay: Antimalarial activity against Plasmodium falciparum W2; type: functional, organism-based
[2] = system: Plasmodium falciparum; assay: Antimalarial activity against Plasmodium falciparum D6; type: functional, organism-based
[3] = system: Plasmodium falciparum; assay: Antimalarial activity against Plasmodium falciparum TM91C235; type: functional, organism-based
[4] = system: NCI; assay: Growth inhibition of human NCI DTP 60 cells; type: functional
[5] = system: HOP-92; assay: Antiproliferative activity against human HOP92 cells after 48 hrs; type: functional; conditions: Homo sapiens, HOP-92, 48 h
[6] = system: LOX IMVI; assay: Antiproliferative activity against human LOX IMVI cells after 48 hrs; type: functional
[7] = system: 786-0; assay: Antiproliferative activity against human 786-0 cells after 48 hrs; type: functional; conditions: Homo sapiens, 786-0, 48 h
[8] = system: HL-60; assay: Antiproliferative activity against human HL60 cells after 48 hrs; type: functional
[9] = system: CCRF-CEM; assay: Antiproliferative activity against human CCRF-CEM cells after 48 hrs; type: functional
[10] = system: UO-31; assay: Antiproliferative activity against human UO31 cells after 48 hrs; type: functional; conditions: Homo sapiens, UO-31, 48 h
[11] = Plasmodium falciparum, TM91C235
[12] = read-out: LC50 (the source's name)

Row | Compound | pIC50 ([1]; Plasmodium falciparum, W2) | IC90 ([1]; Plasmodium falciparum, W2) [nM] | IC90 [2] [nM] | pIC50 ([2]; Plasmodium falciparum, D6) | pIC50 [3, 11] | IC90 [3, 11] [nM] | IC90 ([2]; Plasmodium falciparum, D6) [nM] | pIC50 [1] | pIC50 [2] | pIC50 [3] | IC90 [3] [nM] | further results
1 | COC(=O)CC[C@@H](C)[C@H]1CC[C@H]2[C@@H]3CC[C@@H]4CC5(CC[C@]4(C)[C@H]3C[C@H](OC(C)=O)[C@]12C)OOC1(CCC(C)CC1)OO5 (stereo in doubt; 3b) | 7.47 | 49.3 | 26 | 7.41 | 7.37 | 74.9 | – | – | – | – | – | –
2 | CC(=O)O[C@H]1C[C@H]2[C@@H](CC[C@@H]3CC4(CC[C@@]32C)OOC2(CCCCC2)OO4)[C@@H]2CC[C@H]([C@H](C)CCC(=O)O)[C@@]12C | 7.03 | 178 | – | 6.97 | – | – | 310 | – | – | – | – | –
3 | CC(=O)O[C@H]1C[C@H]2[C@@H](CC[C@@H]3CC4(CC[C@@]32C)OOC2(CCCCC2)OO4)[C@@H]2CC[C@H]([C@H](C)CCC(=O)N3CCCCC3)[C@@]12C | 7.26 | 78.6 | – | 6.98 | 7.07 | 125 | 131 | – | – | – | – | –
4 | CC(=O)O[C@H]1C[C@H]2[C@@H](CC[C@@H]3CC4(CC[C@@]32C)OOC2(CCC(C)CC2)OO4)[C@@H]2CC[C@H]([C@H](C)CCC(=O)Nc3ccccc3)[C@@]12C (stereo in doubt; 18) | – | 38.9 | 33.7 | – | – | – | – | 7.64 | 7.63 | 7.48 | 42.7 | –
5 | CC(=O)O[C@H]1C[C@H]2[C@@H](CC[C@@H]3CC4(CC[C@@]32C)OOC2(CCC(C)CC2)OO4)[C@@H]2CC[C@H]([C@H](C)CCC(=O)Nc3ccccc3)[C@@]12C (stereo in doubt; 19) | – | – | 77.5 | – | – | – | – | 7.29 | 7.30 | 7.18 | 109 | IC90 [1]: 76.9 nM; GI50 ([4]; Homo sapiens, NCI): < 5 nM; GI50 [5]: < 5 nM; LC50 (concentration killing 50% of cells) [5]: 15200 nM; TGI [5]: 130 nM
6 | CCCNC(=O)CC[C@@H](C)[C@H]1CC[C@H]2[C@@H]3CC[C@@H]4CC5(CC[C@]4(C)[C@H]3C[C@H](OC(C)=O)[C@]12C)OOC1(CCC(C)CC1)OO5 (stereo in doubt; 14) | – | 30.5 | – | – | – | – | 20.2 | 8.00 | 8.01 | 7.91 | 23.4 | –
7 | C[C@@H]1CC[C@H]2[C@@H](C)C(=O)O[C@@H]3O[C@@]4(C)CC[C@@H]1[C@]32OO4 [ARTEMISININ] | 8.17 | 11.5 | – | 8.05 | 7.88 | 17.4 | 12.8 | – | – | – | – | –
8 | COC(=O)CC[C@@H](C)[C@H]1CC[C@H]2[C@@H]3CC[C@@H]4CC5(CC[C@]4(C)[C@H]3C[C@H](OC(C)=O)[C@]12C)OOC1(CCC(C)CC1)OO5 (stereo in doubt; 3c) | – | – | 62.9 | – | – | – | – | 7.42 | 7.42 | 7.29 | 77.3 | IC90 [1]: 80.3 nM
9 | COC(=O)CC[C@@H](C)[C@H]1CC[C@H]2[C@@H]3CC[C@@H]4CC5(CC[C@]4(C)[C@H]3C[C@H](OC(C)=O)[C@]12C)OOC1(CCCCC1)OO5 | 6.95 | 170 | – | 6.70 | – | – | 258 | – | – | – | – | –
10 | CC(=O)O[C@H]1C[C@H]2[C@@H](CC[C@@H]3CC4(CC[C@@]32C)OOC2(CCC(C)CC2)OO4)[C@@H]2CC[C@H]([C@H](C)CCC(N)=O)[C@@]12C (stereo in doubt; 13) | – | – | 31.4 | – | – | – | – | 7.71 | 7.64 | 7.55 | 53.5 | IC90 [1]: 118 nM
11 | CC(=O)O[C@H]1C[C@H]2[C@@H]([C@H](OC(C)=O)C[C@@H]3CC4(CC[C@@]32C)OOC2(CCC(C)CC2)OO4)[C@@H]2CC[C@H]([C@H](C)CCC(=O)Nc3ccccc3)[C@@]12C (stereo in doubt; 20) | – | – | 8.07 | – | – | – | – | 8.10 | 8.26 | 8.20 | 11 | IC90 [1]: 10.1 nM; GI50 [4]: 160 nM; LC50 (concentration killing 50% of cells) [6]: 1890 nM; GI50 ([6]; Homo sapiens, LOX IMVI, 48 h): 161 nM; TGI ([6]; Homo sapiens, LOX IMVI, 48 h): 417 nM
12 | CC1CCC2(CC1)OOC1(CC[C@@]3(C)[C@H](CC[C@@H]4[C@@H]3C[C@H](O)[C@]3(C)[C@@H]([C@H](C)CCC(=O)NCCN(C)C)CC[C@@H]43)C1)OO2 (stereo in doubt; 16a) | – | – | – | – | – | – | – | – | – | – | – | GI50 [4]: 15 nM; GI50 [7]: 626 nM; TGI [7]: 2040 nM; CC50 [7, 12]: 5430 nM; TGI [8]: 1010 nM; GI50 ([8]; Homo sapiens, HL-60, 48 h): 377 nM; CC50 [8, 12]: 6090 nM; GI50 ([6]; Homo sapiens, LOX IMVI, 48 h): 184 nM; LC50 (concentration killing 50% of cells) ([6]; Homo sapiens, LOX IMVI, 48 h): 774 nM; TGI ([6]; Homo sapiens, LOX IMVI, 48 h): 378 nM; GI50 [5]: 228 nM; LC50 (concentration killing 50% of cells) [5]: 973 nM; TGI [5]: 471 nM; LC50 (concentration killing 50% of cells) [9]: > 10000 nM; GI50 ([9]; Homo sapiens, CCRF-CEM, 48 h): 257 nM; TGI ([9]; Homo sapiens, CCRF-CEM, 48 h): 539 nM; GI50 [10]: 206 nM; LC50 [10]: 864 nM; TGI [10]: 421 nM
13 | CC(=O)O[C@H]1C[C@H]2[C@@H](CC[C@@H]3CC4(CC[C@@]32C)OOC2(CCC(C)CC2)OO4)[C@@H]2CC[C@H]([C@H](C)CCC(=O)O)[C@@]12C (stereo in doubt; 4b) | – | 84.8 | – | 7.94 | 7.70 | 47 | 17.1 | 7.92 | – | – | – | –
14 | O[C@@H](c1cc(C(F)(F)F)nc2c(C(F)(F)F)cccc12)[C@H]1CCCCN1 [MEFLOQUINE] | – | 8.41 | – | – | – | 65.7 | 21.6 | – | – | – | – | –
15 | CC(=O)O[C@H]1C[C@H]2[C@@H](CC[C@@H]3CC4(CC[C@@]32C)OOC2(CCCCC2)OO4)[C@@H]2CC[C@H]([C@H](C)CCC(N)=O)[C@@]12C | 7.72 | 35.6 | – | 7.49 | 7.39 | 76.7 | 50.4 | – | – | – | – | –
16 | CCCN(CCC)C(=O)CC[C@@H](C)[C@H]1CC[C@H]2[C@@H]3CC[C@@H]4CC5(CC[C@]4(C)[C@H]3C[C@H](OC(C)=O)[C@]12C)OOC1(CCCCC1)OO5 | 6.82 | 169 | – | 6.75 | 6.77 | 203 | 197 | – | – | – | – | –
17 | CC(=O)O[C@H]1C[C@H]2[C@@H](CC[C@@H]3CC4(CC[C@@]32C)OOC2(CCC(C)CC2)OO4)[C@@H]2CC[C@H]([C@H](C)CCC(=O)O)[C@@]12C (stereo in doubt; 4c) | – | – | 31.7 | – | – | – | – | 7.37 | 7.72 | 7.50 | 93 | IC90 [1]: 89.7 nM
18 | CCN(CC)CCCC(C)Nc1ccnc2cc(Cl)ccc12 (stereo unspecified) [CHLOROQUINE] | – | 349 | – | – | – | – | 13.7 | – | – | – | – | –
19 | CC(=O)O[C@H]1C[C@H]2[C@@H](CC[C@@H]3CC4(CC[C@@]32C)OOC2(CCCCC2)OO4)[C@@H]2CC[C@H]([C@H](C)CCC(=O)Nc3ccccc3)[C@@]12C | 7.09 | 195 | – | 6.88 | – | – | 195 | – | – | – | – | –
20 | CC(=O)O[C@H]1C[C@H]2[C@@H](CC[C@@H]3CC4(CC[C@@]32C)OOC2(CCCCC2)OO4)[C@@H]2CC[C@H]([C@H](C)CCC(=O)NN)[C@@]12C | 6.46 | – | – | 6.46 | 6.46 | – | – | – | – | – | – | –
21 | CC(=O)O[C@H]1C[C@H]2[C@@H]([C@H](OC(C)=O)C[C@@H]3CC4(CC[C@@]32C)OOC2(CCCCC2)OO4)[C@@H]2CC[C@H]([C@H](C)CCC(=O)Nc3ccccc3)[C@@]12C | 7.95 | 25.9 | – | 8.17 | 7.99 | 27.8 | 11.7 | – | – | – | – | –
